The results in this text go back to patent publication US10336716B2, “Thermodynamically stable crystal modification of 2-methyl-N-(5-methyl-1, 3, 4-oxadiazol-2-yl)-3-(methylsulfonyl)-4-(trifluoromethyl)benzamide” (Bayer CropScience Aktiengesellschaft, priority 2015, dated 2019).

Holding throughout (assay type): physicochemical
Data set [1] is described as follows: wettability on mixing with water (first comparative experiment). From the text:
Moreover, the benzamide obtainable according to the disclosure of WO 2012/126932 A1 has the disadvantage that it can be less readily worked up, filtered, purified and wetted with solvents. […] These disadvantages are overcome by the provision of the thermodynamically stable benzamide according to the invention.

Data set [2] in a line: testing in practice of suspension formulations. As to conditions: suspension formulation, benzamide finely ground in solid form. From the text:
The benzamide known for example from WO 2012/126932 A1 (example No. 2-145 in table 2 therein) has herbicidal properties and is suitable for the production of crop protection compositions which can be employed for weed control. However, it has been shown that the benzamide obtainable according to the disclosure of WO 2012/126932 A1 is not suitable for the preparation of user-friendly administration forms. User-friendly administration forms are, for example, suspension formulations in which the benzamide is present finely ground in solid form. […] The crystal growth can occur spontaneously or over a longer period and cannot be predicted.

Data set [3] can be described thus: stability test: storage of oil dispersion. The settings on record: after several weeks of storage.

Take `Cc1nnc(NC(=O)c2ccc(C(F)(F)F)c(S(C)(=O)=O)c2C)o1` [2-methyl-N-(5-methyl-1,3,4-oxadiazol-2-yl)-3-(methylsulfonyl)-4-(trifluoromethyl)benzamide]: the “wettability with solvents (in words)” value in data set [1] (solvents such as water and aqueous solvents) is “poorer wettability”. The “crystal growth in suspension formulations” value in data set [2] was “leads to crystal growth in suspension formulations and consequently to clumping and precipitation”.
Turning to `Cc1nnc(NC(=O)c2ccc(C(F)(F)F)c(S(C)(=O)=O)c2C)o1` [crystal modification A, 2-methyl-N-(5-methyl-1,3,4-oxadiazol-2-yl)-3-(methylsulfonyl)-4-(trifluoromethyl)benzamide], the wettability in data set [1] (after 1 minute on mixing with water) is on record as 100%. Further, in data set [3], the “clumping and precipitation of oil dispersion on storage” value is “no signs of clumping and precipitation”.
